Converted amounts (≈) assume the structure as drawn. Where two headings read alike, the source gives them in different places.
Legend:
[1] = test system: MDRAB; test: MIC determination, microdilution broth method; type: cell-based, Acinetobacter baumannii; conditions: for MIC: read-out: MIC
Experimental: Determination methods of a Minimal Inhibitory Concentration (MIC) and a Minimum Bactericidal Concentration (MBC) of a test product: the MIC and the MBC of the Pithecellobium clypearia Benth water or ethanol extract to the MDRAB are determined by a microdilution broth method. And it is operated by referring to the microdilution broth method recommended by National Committee for Clinical Laboratory Standards (NCCLS).

[2] = test system: MDRPA; test: Checkerboard assay (combined-use MIC, FIC); type: cell-based, Pseudomonas aeruginosa; conditions: for FIC, all strains / MIC50 of the antibiotic after combined use / MIC90 of the antibiotic after combined use / reduction of the antibiotic's MIC50 vs single use / reduction of the antibiotic's MIC90 vs single use / share of strains with FIC ≤ 0.5: 20 MDRPAs; for combined-use MIC: EA (P. clypearia water extract) combined with IMP
Experimental: Test methods of the sensibilization effects of the test product to similar antibiotics: it is operated by referring to a checkerboard assay recommended by NCCLS.
The checkerboard assay is performed in a 96-pore sterile culture plate.
Calculation of a Fractional Inhibitory Concentration (FIC): FIC=S20b combined-use MIC/S20b single-use MIC+antibiotic combined-use MIC/antibiotic single-use MIC. By calculating the FIC, the combined antibacterial interaction between the EA and the antibiotic is evaluated, with synergistic effect for FIC≤0.5, additive effect for 0.5<FIC≤1, indifferent effect for 1<FIC≤2 and antagonistic effect for FIC>2. According to a sterile growth pore, the optimum concentration ratio between the EA and the antibiotic is founded out. At last, the effect of the EA to strengthen the efficacy of the antibiotic is evaluated.

[3] = single use, 20 MDRABs, EA=10% ethanol extract
[4] = single use, 20 MDRABs, EA=water extract
[5] = single use, 20 MDRABs, section of the 95% ethanol extract
[6] = antibiotic with 10% ethanol extract
[7] = antibiotic with 60% ethanol extract
[8] = antibiotic with 95% ethanol extract
[9] = antibiotic with EA (water extract)

- MIC ([1]; Acinetobacter baumannii, strain A18, single use, EA=10% ethanol extract): 32 µg/mL (≈ 107 µM)
- MIC ([1]; Acinetobacter baumannii, strain A18, single use, EA=water extract): 32 µg/mL (≈ 107 µM)
- MIC ([1]; Acinetobacter baumannii, strain A19, EA=60% ethanol extract): 32 µg/mL (≈ 107 µM)
- MIC ([1]; Acinetobacter baumannii, strain A19, EA=95% ethanol extract): 32 µg/mL (≈ 107 µM)
- MIC ([1]; Acinetobacter baumannii, strain A19, single use, EA=10% ethanol extract): 32 µg/mL (≈ 107 µM)
- MIC ([1]; Acinetobacter baumannii, strain A19, single use, EA=water extract): 32 µg/mL (≈ 107 µM)
- MIC ([1]; Acinetobacter baumannii, strain A20, EA=60% ethanol extract): 32 µg/mL (≈ 107 µM)
- MIC ([1]; Acinetobacter baumannii, strain A20, EA=95% ethanol extract): 32 µg/mL (≈ 107 µM)
- MIC ([1]; Acinetobacter baumannii, strain A20, single use, EA=10% ethanol extract): 32 µg/mL (≈ 107 µM)
- MIC ([1]; Acinetobacter baumannii, strain A20, single use, EA=water extract): 32 µg/mL (≈ 107 µM)
- MIC50 ([1]; Acinetobacter baumannii, single use, 20 MDRABs, section of the 60% ethanol extract, read-out: MIC50): 32 µg/mL (≈ 107 µM)
- MIC90 ([1]; Acinetobacter baumannii, single use, 20 MDRABs, section of the 60% ethanol extract, read-out: MIC90): 32 µg/mL (≈ 107 µM)
- MIC50 ([1]; MDRABs, EA=60% ethanol extract): 32 µg/mL (≈ 107 µM)
- MIC90 ([1]; MDRABs, EA=60% ethanol extract): 32 µg/mL (≈ 107 µM)
- MIC Range ([1]; MDRABs, EA=60% ethanol extract): 1 to 32 µg/mL
- MIC50 ([1]; MDRABs, EA=95% ethanol extract): 32 µg/mL (≈ 107 µM)
- MIC90 ([1]; MDRABs, EA=95% ethanol extract): 32 µg/mL (≈ 107 µM)
- MIC Range ([1]; MDRABs, EA=95% ethanol extract): 1 to 32 µg/mL
- MIC50 [1, 3]: 32 µg/mL (≈ 107 µM)
- MIC90 [1, 3]: 32 µg/mL (≈ 107 µM)
- MIC Range [1, 3]: 1 to 32 µg/mL
- MIC50 [1, 4]: 32 µg/mL (≈ 107 µM)
- MIC90 [1, 4]: 32 µg/mL (≈ 107 µM)
- MIC Range [1, 4]: 1 to 32 µg/mL
- MIC50 [1, 5]: 32 µg/mL (≈ 107 µM)
- MIC90 [1, 5]: 32 µg/mL (≈ 107 µM)
- MIC50 of the antibiotic after combined use [2, 6]: 2 µg/mL
- MIC90 of the antibiotic after combined use [2, 6]: 16 µg/mL
- reduction of the antibiotic's MIC50 vs single use [2, 6]: 93.75%
- reduction of the antibiotic's MIC90 vs single use [2, 6]: 75%
- MIC50 of the antibiotic after combined use [2, 7]: 2 µg/mL
- MIC90 of the antibiotic after combined use [2, 7]: 16 µg/mL
- reduction of the antibiotic's MIC50 vs single use [2, 7]: 93.75%
- reduction of the antibiotic's MIC90 vs single use [2, 7]: 75%
- MIC50 of the antibiotic after combined use [2, 8]: 4 µg/mL
- MIC90 of the antibiotic after combined use [2, 8]: 16 µg/mL
- reduction of the antibiotic's MIC50 vs single use [2, 8]: 75%
- reduction of the antibiotic's MIC90 vs single use [2, 8]: 75%
- MIC50 of the antibiotic after combined use [2, 9]: 2 µg/mL
- MIC90 of the antibiotic after combined use [2, 9]: 16 µg/mL
- reduction of the antibiotic's MIC50 vs single use [2, 9]: 93.75%
- reduction of the antibiotic's MIC90 vs single use [2, 9]: 75%
- combined-use MIC ([2]; strain P1): 16 µg/mL
- combined-use MIC ([2]; strain P2): 2 µg/mL
- combined-use MIC ([2]; strain P3): 2 µg/mL
- combined-use MIC ([2]; strain P4): 2 µg/mL
- combined-use MIC ([2]; strain P5): 16 µg/mL
- combined-use MIC ([2]; strain P6): 2 µg/mL
- combined-use MIC ([2]; strain P7): 2 µg/mL
- combined-use MIC ([2]; strain P8): 2 µg/mL
- combined-use MIC ([2]; strain P9): 16 µg/mL
- combined-use MIC ([2]; strain P10): 16 µg/mL
- combined-use MIC ([2]; strain P11): 4 µg/mL
- combined-use MIC ([2]; strain P12): 2 µg/mL
- combined-use MIC ([2]; strain P13): 2 µg/mL
- combined-use MIC ([2]; strain P14): 4 µg/mL
- combined-use MIC ([2]; strain P15): 8 µg/mL
- combined-use MIC ([2]; strain P16): 2 µg/mL
- combined-use MIC ([2]; strain P17): 4 µg/mL
- combined-use MIC ([2]; strain P18): 4 µg/mL
- combined-use MIC ([2]; strain P19): 4 µg/mL
- combined-use MIC ([2]; strain P20): 2 µg/mL
Compound: C[C@@H](O)[C@H]1C(=O)N2C(C(=O)O)=C(SCCN=CN)C[C@H]12 [IMP, imipenem]
- FIC, all strains [2, 6]: ≤ 2
- share of strains with FIC ≤ 0.5 [2, 6]: 50%
- FIC, all strains [2, 7]: ≤ 2
- share of strains with FIC ≤ 0.5 [2, 7]: 15%
- FIC, all strains [2, 8]: ≤ 2
- share of strains with FIC ≤ 0.5 [2, 8]: 40%
- FIC, all strains [2, 9]: ≤ 2
- share of strains with FIC ≤ 0.5 [2, 9]: 40%

Source: patent US11793849B2, “Method of Chinese herbal medicine extract used for treating multiple diseases caused by drug resistant bacteria infection” (priority 2016, dated 2023)
